Laboratory results from article PMC5451161 (Tetrahedron, asymmetry, 2016).

Molecular target: NDM-1 (New Delhi metallo-β-Lactamase) (Klebsiella pneumoniae, UniProt C7C422)
Format: biochemical

Sequence of NDM-1 (New Delhi metallo-β-Lactamase) (C7C422 29-270 limits assumed): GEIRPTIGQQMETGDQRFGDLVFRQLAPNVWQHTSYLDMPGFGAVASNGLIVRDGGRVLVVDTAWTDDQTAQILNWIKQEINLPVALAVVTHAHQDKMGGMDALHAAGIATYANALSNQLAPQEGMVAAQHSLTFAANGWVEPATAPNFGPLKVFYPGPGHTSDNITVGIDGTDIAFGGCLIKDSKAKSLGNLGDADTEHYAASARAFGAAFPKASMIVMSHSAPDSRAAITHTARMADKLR

COC(=O)[C@@H]1COC2CSC(CS)N21 (stereo partly shown) [4f]
Ki: 1600 ± 600 nM
